Source: ChEMBL document CHEMBL5316313, “Discovery of Novel 3-Phenylpiperidine Derivatives Targeting the β-Catenin/B-Cell Lymphoma 9 Interaction as a Single Agent and in Combination with the Anti-PD-1 Antibody for the Treatment of Colorectal Cancer” (J Med Chem, 2023)
Active and inactive are the calls of the source. The calls are words filed in the database; no cut-off is given here.

What was measured:
HCT-116 [1] = test: Induction of apoptosis in Wnt-dependent human HCT-116 cells assessed as viable cells at 10 uM incubated for 24 hrs by Annexin V-Alexa Fluor 647/PI staining based flow cytomtery (Rvb=69.5%); type: functional; conditions: read-out: Activity
RKO = test: Antiproliferative activity against Wnt-independent human RKO cells assessed as cell growth inhibition at 40 uM incubated for 48 hrs by CellTiter-Glo assay; type: functional, cell-based
HCT-116 [2] = test: Induction of apoptosis in Wnt-dependent human HCT-116 cells assessed as viable cells at 20 uM incubated for 24 hrs by Annexin V-Alexa Fluor 647/PI staining based flow cytomtery (Rvb=69.5%); type: functional; conditions: read-out: Activity
CT26 [3] = conditions: Mus musculus, BALB/c, dose 30.0 mg/kg, route ip
Description: In vivo inhibition of Wnt signaling pathway in mouse CT26 cells implanted in BALB/c mouse assessed as reduction in Cd44 mRNA expression level in tumor at 30 mg/kg, ip QD by qRT-PCR analysis

CT26 [4] = test: Synergistic antitumor activity in mouse CT26 cells xenografted in BALB/c mouse assessed as increase in granzyme B-positive CD8+ T cell infiltration into tumor at 30 mg/kg, ip QD in presence of anti-PD-1 antibody cotreatment at 10 mg/kg,ip BIW by flow cytometry; type: functional, organism-based
CT26 [5] = test: Synergistic antitumor activity in mouse CT26 cells xenografted in BALB/c mouse assessed as increase in IFNgamma-positive CD8+ T cell infiltration into tumor at 30 mg/kg, ip QD in presence of anti-PD-1 antibody cotreatment at 10 mg/kg,ip BIW by flow cytometry; type: functional, organism-based
CT26 [6] = test: Synergistic antitumor activity in mouse CT26 cells xenografted in BALB/c mouse assessed as decrease in Foxp3-positive Treg cells in TIME tumor cells at 30 mg/kg, ip QD in presence of anti-PD-1 antibody cotreatment at 10 mg/kg,ip BIW by flow cytomtery; type: functional, organism-based
[7] = Toxicity in BALB/c mouse xenografted with mouse CT26 cells assessed as pathological changes in heart at 30 mg/kg, ip QD in presence of anti-PD-1 antibody cotreatment at 10 mg/kg,ip BIW by hematoxylin and eosin staining based microscopic analysis; type: organism-based; conditions: in vivo
HEK293 [8] = test: Induction of apoptosis in Wnt-independent human HEK293 cells assessed as viable cells at 20 uM incubated for 24 hrs by Annexin V-Alexa Fluor 647/PI staining based flow cytomtery (Rvb=70.5%); type: functional; conditions: read-out: Activity
[9] = Clearance in Sprague-Dawley rat at 21 mg/kg, ip and measured upto 24 hrs by LC-MS analysis; type: ADME, organism-based; conditions: in vivo
[10] = Toxicity in BALB/c mouse xenografted with mouse CT26 cells assessed as pathological changes in spleen at 30 mg/kg, ip QD in presence of anti-PD-1 antibody cotreatment at 10 mg/kg,ip BIW by hematoxylin and eosin staining based microscopic analysis; type: organism-based; conditions: in vivo
CT26 [11] = test: Antitumor activity in mouse CT26 cells xenografted in BALB/c mouse assessed as increase in GZMB mRNA expression level in tumor at 30 mg/kg, ip QD by qRT-PCR analysis; type: functional, organism-based
[12] = Microsomal stability in human liver microsomes assessed as intrinsic clearance at […] and measured upto 60 mins by LC-MS/MS analysis; type: ADME, Microsome; conditions: read-out: CLH
HCT-116 [13] = test: Cytotoxicity against Wnt-dependent human HCT-116 cells assessed as reduction in cell viability at 10 to 20 uM by LDH release assay; type: toxicity, cell-based; conditions: hct-116, 20 µM, dose 10-20 µM
HCT-116 [14] = test: Induction of apoptosis in Wnt-dependent human HCT-116 cells assessed as early apoptotic cells at 20 uM incubated for 24 hrs by Annexin V-Alexa Fluor 647/PI staining based flow cytomtery (Rvb=14.3%); type: functional
HEK293 [15] = test: Induction of apoptosis in Wnt-independent human HEK293 cells assessed as late apoptotic cells at 10 uM incubated for 24 hrs by Annexin V-Alexa Fluor 647/PI staining based flow cytomtery (Rvb=10.5%); type: functional
[16] = Toxicity in BALB/c mouse xenografted with mouse CT26 cells assessed as adverse effect at 30 mg/kg, ip QD and measured upto 9 days in presence of anti-PD-1 antibody cotreatment at 10 mg/kg,ip BIW; type: organism-based; conditions: in vivo, 216 h, time < 9 day
CT26 [17] = test: Synergistic antitumor activity in mouse CT26 cells xenografted in BALB/c mouse assessed as increase in IFNG mRNA expression level in tumor at 30 mg/kg, ip QD in presence of anti-PD-1 antibody cotreatment at 10 mg/kg,ip BIW by qRT-PCR analysis; type: functional, organism-based
CT26 [18] = test: Antiproliferative activity against Wnt-dependent mouse CT26 cells assessed as cell growth inhibition incubated for 48 hrs by CellTiter-Glo assay; type: functional, cell-based
CT26 [19] = test: Antitumor activity in mouse CT26 cells xenografted in BALB/c mouse assessed as increase in IFNgamma-positive CD8+ T cell infiltration into tumor at 30 mg/kg, ip QD by flow cytometry; type: functional, organism-based
[20] = Tmax in Sprague-Dawley rat at 21 mg/kg, ip and measured upto 24 hrs by LC-MS analysis; type: ADME, organism-based; conditions: in vivo
CT26 [21] = test: Antitumor activity in mouse CT26 cells xenografted in BALB/c mouse assessed as increase in IFNG mRNA expression level in tumor at 30 mg/kg, ip QD by qRT-PCR analysis; type: functional, organism-based

In the case of `CC(C)c1ccc(-c2cccc(S(=O)(=O)N3CCCC(c4cccc(OC(C)(C)C(=O)NS(=O)(=O)c5ccc(C(F)(F)F)cc5)c4)C3)c2)cc1` (configuration not stated), the viability at 10 µM (HCT-116 [1]) is reported as 59.8%, the Activity (RKO) is reported as “inactive” and the viability at 20 µM (HCT-116 [2]) is reported as 37.3%. The inhibition (CT26 [3]) was “Active”, the Activity (CT26 [4]) was “Active” and the Activity (CT26 [5]) was “Active”. The Activity (CT26 [6]) was “Active”, the Activity [7] was “Non-Toxic” and the viability at 20 µM (HEK293 [8]) was 64.7%. The CL/F [9] was 20.1 mL/min/kg, the Activity [10] was “Non-Toxic” and the Activity (CT26 [11]) was “Active”. For the same compound, the microsomal CLint [12] was 43.2 µL/min/mg, the Activity (HCT-116 [13]) was “Non-Toxic” and the Activity (HCT-116 [14]) was 26.4%. The Activity (HEK293 [15]) was 14.9%, the Activity [16] was “Non-Toxic” and the Activity (CT26 [17]) was “Active”. The Activity (CT26 [18]) was “Active”, the Activity (CT26 [19]) was “Active” and the Tmax [20] was 30 min. For the same compound, the Activity (CT26 [21]) was “Active”.
